Results as given in patent publication US5530126A, “Process for the preparation of substituted 6-(pyrazol-3yl)-1,4-benzoxazin-3-ones” (Monsanto Company, priority 1994, dated 1996).

How the values were obtained:
Type in all cases: in vivo
Velvetleaf [1] = test: Post-emergence herbicide test; conditions: Abutilon theophrasti, read-out: % plant inhibition (Vele); for inhibition at 11210 g/ha: 11.21 kg/ha; for inhibition at 1120 g/ha: 1.12 kg/ha
Summary of the method: (§1)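 Plants grown from seed or vegetative propagules in greenhouse soil pans were sprayed at two to three weeks of age by atomizer at 170.3 kPa, delivering 1870 L/Ha containing about 0.4% v/v emulsifier. Injury versus untreated controls was scored as percent inhibition at about 11 days, sometimes again near 25 days.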

Morningglory [2] = test: Post-emergence herbicide test; conditions: Ipomoea, read-out: % plant inhibition (Mogl); for inhibition at 11210 g/ha: 11.21 kg/ha; for inhibition at 1120 g/ha: 1.12 kg/ha
Summary of the method: as §1

Cocklebur [3] = test: Post-emergence herbicide test; conditions: Xanthium strumarium, read-out: % plant inhibition (Cobu); for inhibition at 11210 g/ha: 11.21 kg/ha; for inhibition at 1120 g/ha: 1.12 kg/ha
Summary of the method: as §1

Annual bluegrass [4] = test: Post-emergence herbicide test; conditions: read-out: % plant inhibition (Anbg); for inhibition at 11210 g/ha: 11.21 kg/ha; for inhibition at 1120 g/ha: 1.12 kg/ha
Summary of the method: as §1

Barnyardgrass [5] = test: Post-emergence herbicide test; conditions: Echinochloa crus-galli, read-out: % plant inhibition (Bygr); for inhibition at 11210 g/ha: 11.21 kg/ha; for inhibition at 1120 g/ha: 1.12 kg/ha
Summary of the method: as §1

Downy Brome [6] = test: Post-emergence herbicide test; conditions: Bromus tectorum, read-out: % plant inhibition (Dobr); for inhibition at 11210 g/ha: 11.21 kg/ha; for inhibition at 1120 g/ha: 1.12 kg/ha
Summary of the method: as §1

Indian Mustard [7] = test: Post-emergence herbicide test; conditions: Brassica juncea, read-out: % plant inhibition (Inmu); for inhibition at 11210 g/ha: 11.21 kg/ha; for inhibition at 1120 g/ha: 1.12 kg/ha
Summary of the method: as §1

Seedling johnsongrass [8] = test: Post-emergence herbicide test; conditions: Sorghum halepense, read-out: % plant inhibition (Sejg); for inhibition at 11210 g/ha: 11.21 kg/ha; for inhibition at 1120 g/ha: 1.12 kg/ha
Summary of the method: as §1

Wild buckwheat [9] = test: Post-emergence herbicide test; conditions: Fallopia convolvulus, read-out: % plant inhibition (Wibw); for inhibition at 11210 g/ha: 11.21 kg/ha; for inhibition at 1120 g/ha: 1.12 kg/ha
Summary of the method: as §1

Yellow nutsedge [10] = test: Post-emergence herbicide test; conditions: Cyperus, read-out: % plant inhibition (Yens); for inhibition at 11210 g/ha: 11.21 kg/ha; for inhibition at 1120 g/ha: 1.12 kg/ha
Summary of the method: as §1

[11] = system: resistant broadleaf weeds such as pigweed, cocklebur, velvetleaf and hemp sesbania; test: Control of resistant broadleaf weeds in crops; conditions: in various crops such as corn, soybean and nuts and in forestry
Velvetleaf [12] = test: Pre-emergence herbicide test; conditions: Abutilon theophrasti, read-out: % plant inhibition (Vele); for inhibition at 11210 g/ha: 11.21 kg/ha; for inhibition at 1120 g/ha: 1.12 kg/ha
Summary of the method: (§2)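 Pre-emergence soil application: compound in acetone or water carrier sprayed onto seeded topsoil surface, overlaid with untreated soil. Pans kept on greenhouse bench, watered from below. Read-out % inhibition, ~11 days post-treatment.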

Morningglory [13] = test: Pre-emergence herbicide test; conditions: Ipomoea, read-out: % plant inhibition (Mogl); for inhibition at 11210 g/ha: 11.21 kg/ha; for inhibition at 1120 g/ha: 1.12 kg/ha
Summary of the method: as §2

Cocklebur [14] = test: Pre-emergence herbicide test; conditions: Xanthium strumarium, read-out: % plant inhibition (Cobu); for inhibition at 11210 g/ha: 11.21 kg/ha; for inhibition at 1120 g/ha: 1.12 kg/ha
Summary of the method: as §2

Annual bluegrass [15] = test: Pre-emergence herbicide test; conditions: read-out: % plant inhibition (Anbg); for inhibition at 11210 g/ha: 11.21 kg/ha; for inhibition at 1120 g/ha: 1.12 kg/ha
Summary of the method: as §2

Barnyardgrass [16] = test: Pre-emergence herbicide test; conditions: Echinochloa crus-galli, read-out: % plant inhibition (Bygr); for inhibition at 11210 g/ha: 11.21 kg/ha; for inhibition at 1120 g/ha: 1.12 kg/ha
Summary of the method: as §2

Downy Brome [17] = test: Pre-emergence herbicide test; conditions: Bromus tectorum, read-out: % plant inhibition (Dobr); for inhibition at 11210 g/ha: 11.21 kg/ha; for inhibition at 1120 g/ha: 1.12 kg/ha
Summary of the method: as §2

Indian Mustard [18] = test: Pre-emergence herbicide test; conditions: Brassica juncea, read-out: % plant inhibition (Inmu); for inhibition at 11210 g/ha: 11.21 kg/ha; for inhibition at 1120 g/ha: 1.12 kg/ha
Summary of the method: as §2

Seedling johnsongrass [19] = test: Pre-emergence herbicide test; conditions: Sorghum halepense, read-out: % plant inhibition (Sejg); for inhibition at 11210 g/ha: 11.21 kg/ha; for inhibition at 1120 g/ha: 1.12 kg/ha
Summary of the method: as §2

Wild buckwheat [20] = test: Pre-emergence herbicide test; conditions: Fallopia convolvulus, read-out: % plant inhibition (Wibw); for inhibition at 11210 g/ha: 11.21 kg/ha; for inhibition at 1120 g/ha: 1.12 kg/ha
Summary of the method: as §2

Yellow nutsedge [21] = test: Pre-emergence herbicide test; conditions: Cyperus, read-out: % plant inhibition (Yens); for inhibition at 11210 g/ha: 11.21 kg/ha; for inhibition at 1120 g/ha: 1.12 kg/ha
Summary of the method: as §2

With `C#CCOc1cc(-c2nn(C)c(C(F)(F)F)c2Cl)c(F)cc1Cl` [Compound 261, 4-Chloro-3-(4-chloro-2-fluoro-5-propargyl-oxyphenyl)-1-methyl-5-(trifluoromethyl)-1H-pyrazole] the inhibition at 11210 g/ha (Velvetleaf [1]) was 100%, the inhibition at 11210 g/ha (Morningglory [2]) was 100% and the inhibition at 11210 g/ha (Cocklebur [3]) was 100%. For the same compound, the inhibition at 11210 g/ha (Annual bluegrass [4]) was 100%, the inhibition at 11210 g/ha (Barnyardgrass [5]) was 100% and the inhibition at 11210 g/ha (Downy Brome [6]) was 100%. For the same compound, the inhibition at 11210 g/ha (Indian Mustard [7]) was 100%, the inhibition at 11210 g/ha (Seedling johnsongrass [8]) was 100% and the inhibition at 11210 g/ha (Wild buckwheat [9]) was 100%. The inhibition at 11210 g/ha (Yellow nutsedge [10]) was 20%, the “control of resistant broadleaf weeds” value [11] was “outstanding control” and the inhibition at 11210 g/ha (Velvetleaf [12]) was 100%. It also gave an inhibition at 11210 g/ha (Morningglory [13]) of 100%, an inhibition at 11210 g/ha (Cocklebur [14]) of 100% and an inhibition at 11210 g/ha (Annual bluegrass [15]) of 100%. For the same compound, the inhibition at 11210 g/ha (Barnyardgrass [16]) was 100%, the inhibition at 11210 g/ha (Downy Brome [17]) was 100% and the inhibition at 11210 g/ha (Indian Mustard [18]) was 100%. It also gave an inhibition at 11210 g/ha (Seedling johnsongrass [19]) of 100%, an inhibition at 11210 g/ha (Wild buckwheat [20]) of 100% and an inhibition at 11210 g/ha (Yellow nutsedge [21]) of 30%.
Work on `Cn1nc(-c2cc(S)c(Cl)cc2Cl)c(Cl)c1C(F)(F)F` [Compound 93] yielded an inhibition at 1120 g/ha (Velvetleaf [1]) of 90%, an inhibition at 1120 g/ha (Morningglory [2]) of 60% and an inhibition at 1120 g/ha (Cocklebur [3]) of 70%. For the same compound, the inhibition at 1120 g/ha (Annual bluegrass [4]) was 10%, the inhibition at 1120 g/ha (Barnyardgrass [5]) was 70% and the inhibition at 1120 g/ha (Downy Brome [6]) was 50%. For the same compound, the inhibition at 1120 g/ha (Indian Mustard [7]) was 60%, the inhibition at 1120 g/ha (Seedling johnsongrass [8]) was 40% and the inhibition at 1120 g/ha (Wild buckwheat [9]) was 90%. The inhibition at 1120 g/ha (Yellow nutsedge [10]) was 0%, the inhibition at 1120 g/ha (Velvetleaf [12]) was 20% and the inhibition at 1120 g/ha (Morningglory [13]) was 30%. The inhibition at 1120 g/ha (Cocklebur [14]) was 20%, the inhibition at 1120 g/ha (Annual bluegrass [15]) was 0% and the inhibition at 1120 g/ha (Barnyardgrass [16]) was 0%. The inhibition at 1120 g/ha (Downy Brome [17]) was 0%, the inhibition at 1120 g/ha (Indian Mustard [18]) was 10% and the inhibition at 1120 g/ha (Seedling johnsongrass [19]) was 0%. For the same compound, the inhibition at 1120 g/ha (Wild buckwheat [20]) was 20% and the inhibition at 1120 g/ha (Yellow nutsedge [21]) was 0%.
With `C#CCOCc1cc(-c2nn(C)c(C(F)(F)F)c2Cl)c(F)cc1Cl` [Compound 120] the inhibition at 1120 g/ha (Velvetleaf [1]) was 100%, the inhibition at 1120 g/ha (Morningglory [2]) was 100% and the inhibition at 1120 g/ha (Cocklebur [3]) was 90%. It also gave an inhibition at 1120 g/ha (Annual bluegrass [4]) of 40%, an inhibition at 1120 g/ha (Barnyardgrass [5]) of 80% and an inhibition at 1120 g/ha (Downy Brome [6]) of 50%. For the same compound, the inhibition at 1120 g/ha (Indian Mustard [7]) was 70%, the inhibition at 1120 g/ha (Seedling johnsongrass [8]) was 80% and the inhibition at 1120 g/ha (Wild buckwheat [9]) was 100%. The inhibition at 1120 g/ha (Yellow nutsedge [10]) was 10%, the inhibition at 1120 g/ha (Velvetleaf [12]) was 100% and the inhibition at 1120 g/ha (Morningglory [13]) was 80%. The inhibition at 1120 g/ha (Cocklebur [14]) was 30%, the inhibition at 1120 g/ha (Annual bluegrass [15]) was 70% and the inhibition at 1120 g/ha (Barnyardgrass [16]) was 80%. For the same compound, the inhibition at 1120 g/ha (Downy Brome [17]) was 70%, the inhibition at 1120 g/ha (Indian Mustard [18]) was 90% and the inhibition at 1120 g/ha (Seedling johnsongrass [19]) was 80%. It also gave an inhibition at 1120 g/ha (Wild buckwheat [20]) of 100% and an inhibition at 1120 g/ha (Yellow nutsedge [21]) of 10%.
In the case of `Cn1nc(-c2cc(C3=NCCO3)c(Cl)cc2F)c(Cl)c1C(F)(F)F` [Compound 98], the inhibition at 1120 g/ha (Velvetleaf [1]) is reported as 100%, the inhibition at 1120 g/ha (Morningglory [2]) is reported as 100% and the inhibition at 1120 g/ha (Cocklebur [3]) is reported as 100%. For the same compound, the inhibition at 1120 g/ha (Annual bluegrass [4]) was 70%, the inhibition at 1120 g/ha (Barnyardgrass [5]) was 80% and the inhibition at 1120 g/ha (Downy Brome [6]) was 90%. It also gave an inhibition at 1120 g/ha (Indian Mustard [7]) of 80%, an inhibition at 1120 g/ha (Seedling johnsongrass [8]) of 90% and an inhibition at 1120 g/ha (Wild buckwheat [9]) of 50%. It also gave an inhibition at 1120 g/ha (Yellow nutsedge [10]) of 0%, an inhibition at 1120 g/ha (Velvetleaf [12]) of 90% and an inhibition at 1120 g/ha (Morningglory [13]) of 80%. The inhibition at 1120 g/ha (Cocklebur [14]) was 20%, the inhibition at 1120 g/ha (Annual bluegrass [15]) was 0% and the inhibition at 1120 g/ha (Barnyardgrass [16]) was 30%. The inhibition at 1120 g/ha (Downy Brome [17]) was 60%, the inhibition at 1120 g/ha (Indian Mustard [18]) was 70% and the inhibition at 1120 g/ha (Seedling johnsongrass [19]) was 70%. The inhibition at 1120 g/ha (Wild buckwheat [20]) was 60% and the inhibition at 1120 g/ha (Yellow nutsedge [21]) was 0%.
Compound `CC(C)OC(=O)COCc1cc(-c2nn(C)c(C(F)(F)F)c2Cl)c(F)cc1Cl` [Compound 119] has an inhibition at 11210 g/ha (Velvetleaf [1]) of 100%, an inhibition at 11210 g/ha (Morningglory [2]) of 100% and an inhibition at 11210 g/ha (Cocklebur [3]) of 100%. It also gave an inhibition at 11210 g/ha (Annual bluegrass [4]) of 100%, an inhibition at 11210 g/ha (Barnyardgrass [5]) of 100% and an inhibition at 11210 g/ha (Downy Brome [6]) of 100%. It also gave an inhibition at 11210 g/ha (Indian Mustard [7]) of 100%, an inhibition at 11210 g/ha (Seedling johnsongrass [8]) of 100% and an inhibition at 11210 g/ha (Wild buckwheat [9]) of 100%. The inhibition at 11210 g/ha (Yellow nutsedge [10]) was 20%, the inhibition at 11210 g/ha (Velvetleaf [12]) was 100% and the inhibition at 11210 g/ha (Morningglory [13]) was 100%. For the same compound, the inhibition at 11210 g/ha (Cocklebur [14]) was 100%, the inhibition at 11210 g/ha (Annual bluegrass [15]) was 10% and the inhibition at 11210 g/ha (Barnyardgrass [16]) was 100%. It also gave an inhibition at 11210 g/ha (Downy Brome [17]) of 80%, an inhibition at 11210 g/ha (Indian Mustard [18]) of 100% and an inhibition at 11210 g/ha (Seedling johnsongrass [19]) of 80%. It also gave an inhibition at 11210 g/ha (Wild buckwheat [20]) of 100% and an inhibition at 11210 g/ha (Yellow nutsedge [21]) of 70%.
